Where a name gives a salt, the structure may show the parent alone.
How the values were obtained:
Type in all cases: cell-based, human
KIM-1 mRNA = KIM-1 mRNA qRT-PCR in HK-2 cells; parameters: key to Upregulation of KIM-1 HK-2 R: +: statistically significant increase; −: no significant increase; details: for Upregulation of KIM-1 HK-2 R: mRNA levels, 72 h time point
Procedure: (§1) HK-2 cells (ATCC CRL-2190; Manassas, VA) were maintained in DMEM/F12 (Life Technologies; Sydney, NSW, Australia) supplemented with 5 μg/mL insulin, 5 μg/mL transferrin, 5 ng/mL sodium selenite (ITS; Roche; […] (passage 2) and culture kits were purchased from Lonza. […] were maintained in Renal Epithelial Cell BulletKitTM (CC-3190, Lonza) at 37°C and 5% CO2 atmosphere. Cells were passaged to 96-well plates with a density of 4000 cells/well. After 24 h culture, compounds with different concentration series were added into each well and incubated for 4, 24, 48, and 72 h. HK-2 and […] were treated with compounds for 4, 24, 48, and 72 h, then the cells were lysed and the RNA reverse transcribed with the TaqMan® Gene Expression Cells-to-CTTM Kit (Life Technologies) according to the manufacturer's instructions. […] Hs00273334_m1), Lcn2 (NGAL; Hs01008571_m1), and Csf1 (M-CSF; Hs00174164_m1). All probes span an exon-exon junction. The real-time quantitative reverse transcription PCR (qRT-PCR) was performed in a 10 μl final reaction mixture using a ViiA 7TM system (Applied Biosystems®, Sydney, NSW, Australia) based on the following thermo cycling conditions: 10 min at 95°C for one cycle, 15 sec at 95°C, 60 sec at 60°C for 40 cycles. The ViiA 7TM software was used for data analysis with Hprt1 expression used for normalization. All assays were performed at least three times, with at least two technical replicates in each assay.

KIM-1 [1] = experiment: KIM-1 protein ELISA in HK-2 cells; parameters: key: +: statistically significant increase; −: no significant increase; details: protein levels in culture medium; 72 h time point
Procedure: (§2) HK-2 cells (ATCC CRL-2190; Manassas, VA) were maintained in DMEM/F12 (Life Technologies; Sydney, NSW, Australia) supplemented with 5 μg/mL insulin, 5 μg/mL transferrin, 5 ng/mL sodium selenite (ITS; Roche; […] (passage 2) and culture kits were purchased from Lonza. […] were maintained in Renal Epithelial Cell BulletKitTM (CC-3190, Lonza) at 37°C and 5% CO2 atmosphere. Cells were passaged to 96-well plates with a density of 4000 cells/well. After 24 h culture, compounds with different concentration series were added into each well and incubated for 4, 24, 48, and 72 h. KIM-1 (DY1750), NGAL (DY1757), and M-CSF (DY216) Duo-Set® ELISA kits were purchased from R&D systems (Minneapolis, MN). Sandwich-ELISA experiments were conducted following the manufacturer's instructions with slight modifications. A 96-well microplate (MaxiSorp®, Nunc, Thermo Scientific, NSW, Australia) was coated with 100 μL of capture antibodies (diluted 1:200 in PBS) and incubated overnight. The plate was then washed twice with washing buffer (0.05% Tween 20 in PBS, pH 7.4) and blocked by adding 300 μL of blocking buffer (1% bovine serum albumin (BSA) in PBS) for 1 h at room temperature. After washing two times with PBS, 100 μL of samples (cell culture media or cell lysates) or standards were then added to each well and incubated for 2 h at room temperature. The biotinylated detection antibodies were then diluted in blocking buffer, added to each well and incubated for 2 h. Horseradish peroxidase (HRP)-labeled streptavidin (100 μL) was then added to bind to detection antibodies. To each well, 100 μL of substrate solution (1:1 mixture of H2O2 and tetramethylbenzidine) was added and incubated for 20 min before reaction termination with 50 μL of stop solution (2N H2SO4). The optical density of each well was measured at 450 nm using a POLARstar Omega plate reader (BMG Labtech). All assays were performed at least three times, with at least two technical replicates in each assay.

NGAL mRNA [2] = experiment: NGAL mRNA qRT-PCR in hRPTECs; parameters: key to Upregulation of NGAL hRPTECs R: +: statistically significant increase; −: no significant increase; details: for NGAL mRNA levels in hRPTECs: 72 h exposure; for Upregulation of NGAL hRPTECs R: mRNA levels, 72 h time point
Procedure: as §1

NGAL = NGAL protein ELISA in hRPTECs; parameters: key to Upregulation of NGAL hRPTECs P: +: statistically significant increase; −: no significant increase; details: for Upregulation of NGAL hRPTECs P: protein levels in culture medium, 72 h time point
Procedure: as §2

KIM-1 [3] = experiment: KIM-1 protein ELISA in hRPTECs; parameters: key to Upregulation of KIM-1 hRPTECs P: +: statistically significant increase; −: no significant increase; details: protein levels in culture medium; 72 h time point
Procedure: as §2

NGAL mRNA [4] = experiment: NGAL mRNA qRT-PCR in HK-2 cells; parameters: key to Upregulation of NGAL HK-2 R: +: statistically significant increase; −: no significant increase; details: for Upregulation of NGAL HK-2 R: mRNA levels, 72 h time point
Procedure: as §1

Compound | KIM-1 mRNA transcription level in HK-2 cells (KIM-1 mRNA; 72 h, P < 0.005) | Upregulation of KIM-1 HK-2 R (KIM-1 mRNA) | Upregulation of KIM-1 HK-2 P (KIM-1 [1]) | NGAL mRNA levels in hRPTECs (NGAL mRNA [2]; 10 μmol/L, P < 0.05) | Upregulation of NGAL hRPTECs R (NGAL mRNA [2]) | Upregulation of NGAL hRPTECs P (NGAL) | Upregulation of KIM-1 hRPTECs P (KIM-1 [3]) | NGAL mRNA level in HK-2 cells (NGAL mRNA [4]; 72 h exposure, P < 0.01) | Upregulation of NGAL HK-2 R (NGAL mRNA [4]) | NGAL mRNA levels in hRPTECs (NGAL mRNA [2]; 100 μmol/L, P < 0.01) | NGAL protein upregulation in hRPTECs (NGAL; 4 h, culture medium (Fig. S5C))
N.N.[Cl][Pt][Cl] [Cisplatin, cisplatin] | increased | + | − | kept rising | + | + | + | clearly increased | + |  | 
CNC(C)C1CCC(N)C(OC2C(N)CC(N)C(OC3OCC(C)(O)C(NC)C3O)C2O)O1 (centres unmarked) [Gentamicin, gentamicin sulfate] |  | − | − |  | − | + | + |  | − |  | 
Colistin sulfate |  | − | − |  | + | + | + |  | − | kept rising | significant upregulation

From article PMC4492764, “Evaluation of biomarkers for in vitro prediction of drug-induced nephrotoxicity: comparison of HK-2, immortalized human proximal tubule epithelial, and primary cultures of human proximal tubular cells” (Pharmacology Research & Perspectives, 2015)
